Entries after “also recorded” stand apart in the source; their conditions may differ. Structures can show the parent of a compound that is named as a salt.
Tests used:
[1] = system: M. tuberculosis isolate 571/573-BAL; experiment: Detergent screen for induced susceptibility, BACTEC 12B growth curves; type: cell-based, Mycobacterium tuberculosis; conditions: for RESULT (effect on growth): 571/573-BAL, detergent approximately 17 μg/ml final, BACTEC 12B supplemented with PANTA or P/cax (ceftriaxone 8 μg/ml); for CB-18 effect in the methods of the invention: carboxybetaines tested
[2] = system: M. tuberculosis isolates ATCC 27294 and 571/573-BAL; experiment: Further studies of the range of activity of betaines; type: cell-based, Mycobacterium tuberculosis
Text: FIGS. 32A and 32B show the variability when simple (i.e., unmodified) carboxybetaines with methylene (Detain PB and Velvetex OLB), ethylene (C18-carboxyethylbetaine), and propylene (CB-18) bridges were employed in this assay. This is consistent with the data of Tsubone K. et al., Jour. Pharm. Sci. 80:441–444 (1991) wherein toxicity is correlated with bridge length.
While the apparent bactericidal activity of the amine oxide was anticipated based on the use of these compounds in antimicrobial formulations (Michaels, E. B., U.S. Pat. No. 564,454 and U.S. Pat. No. 641,728), the activity of the Brij compounds and Crosultaine E-30 was surprising. […] Crosultaine E-30 has both an amidopropyl linkage and a hydroxypropyl bridge. […] Historically, the nonionic detergents have been reported to be contaminated with impurities, and only when purified stimulate growth (Dubos, R. J. et al., Jour. Exptl. Med. 83:409–423 (1946)). Impurities might explain the results with the Brij detergents and Crosultaine E-30.

[3] = system: M. tuberculosis isolates ATCC 27294 and 571/573-BAL; experiment: CB-18 vs. EDTA, BACTEC 12B growth curves; type: cell-based, Mycobacterium tuberculosis
[4] = system: M. tuberculosis isolates ATCC 27294 and 571/573-BAL; experiment: CB-18 and TMA-18 comparison, BACTEC 12B growth curves; type: cell-based, Mycobacterium tuberculosis
Procedure: If the mechanism of CB-18's action was similar to that of the quaternary salts (i.e., generally deleterious), then some delay would be anticipated. For example, if the CB-18 effect was a consequence of the surface active property of the detergent, then disruption of cellular function would not only have nonspecific long term consequences, but would also be independent of the isolate. In an effort to examine the similarity in the mechanism, CB-18 was assayed in parallel with trimethyloctadecylammonium bromide (TMA-18 (Aldrich, Milwaukee, Wis., Cat.# 35,924-6): made as a 100× stock in 1:1, water:isopropanol similar to that described for CB-18 in Example 1). The experimental design is outlined in FIG. 6.
In this experiment both ATCC 27294 and 571/573-BAL were cultivated on 7H11-selective media, and then serially diluted in NALC/citrate to 10,000×. The planting solution (i.e., the final dilution (50,000×)) was manufactured by diluting into either buffer, 0.5 mM CB-18, or 0.1 mM TMA-18 (all concentrations represent the final detergent concentration in the planting solution). […] The final concentration of CB-18 during incubation was approximately 17 μg/ml. The final concentration of TMA-18 during incubation was approximately 3.4 μg/ml. […] FIGS. 7A–7C show one experiment wherein ATCC 27294 cells were planted in the different solutions described above, and FIGS. 8A–8C show a parallel experiment wherein 571/573-BAL cells were planted in the same series.

[5] = system: M. tuberculosis isolate 571/573-BAL; experiment: Planting in lecithin at low inocula, BACTEC 12B growth curves; type: cell-based, Mycobacterium tuberculosis
Text: In this experiment the 571/573-BAL isolate was cultivated on 7H11-selective media, serially diluted in NALC/citrate to approximately 1,000×. In an attempt to examine how the inoculum impacted the results of this assay three different stocks were manufactured, one series in buffer and one series in CB-18. […] The planting solutions were manufactured by mixing these three stocks 1:1 with either buffer or a buffered solution of lecithin (Sigma, St. Louis, Mo.; Cat.#: P 5394 (7.5% lecithin was made up as a 100× concentrate in 100% ethanol (3 grams in 40 mls) and diluted in the Tris buffer of Example 1 immediately prior to use)). The final dilutions of three different planting solutions were approximately 5000×, 25,000×, and 100,000×. The final concentration of CB-18 and lecithin in the appropriate planting solutions was approximately 0.5 mM. […] The final concentration of both lecithin and CB-18 during incubation was approximately 17 μg/ml.
Aliquots of the three stocks (i.e., 2,500×, 12,500× and 50,000×) were also taken for quantitative culture by plating on 7H10 plates (Becton Dickinson, Cockeysville, Md.). […] FIG. 5A presents the 5,000× series planted in either buffer or buffer containing lecithin, and FIG. 5B presents the 5,000× series planted in CB-18 or CB-18 combined with lecithin. FIG. 5C presents the 25,000× series planted in either buffer or buffer containing lecithin, and FIG. 5D presents the 25,000× series planted in CB-18 or CB-18 combined with lecithin. FIG. 5E presents the 100,000× series planted in either buffer or buffer containing lecithin, and FIG. 5F presents the 100,000× series planted in CB-18 or CB-18 combined with lecithin.

[6] = system: M. fortuitum complex isolates ATCC 6841 and 495-JHH; experiment: CB-18 titration, BACTEC 12B growth curves; type: cell-based; conditions: M. fortuitum 495-JHH; cefoxitin (8 μg/ml in PANTA) without CB-18

Compound	RESULT (effect on growth) [1]	further results
C[C@H](CCC(=O)NCCC[N+](C)(C)CCCS(=O)(=O)[O-])[C@H]1CC[C@H]2[C@@H]3[C@H](O)C[C@@H]4C[C@H](O)CC[C@]4(C)[C@H]3C[C@H](O)[C@]12C [CHAPS, reference compound]	No effect	–
CCCCCCCCCCCCCCCCCC[N+](C)(C)CCC(=O)[O-] [C18-carboxyethylbetaine, N-(2-carboxyethyl)-N,N-dimethyl-1-octadecanaminium, inner salt]	strong ability to suppress growth when combined with antibiotics; also recorded: Complete suppression of growth	CB-18 effect in the methods of the invention [1]: show the CB-18 effect; range of activity ([2]; ATCC 27294): 7 to 13 µg/mL
[Cl-].[Cl-].[Mg+2] [MgCl2, reference compound]	–	effect on growth character in the presence of CB-18 ([3]; 571/573-BAL, five-fold molar excess of MgCl2 (85 μg/ml) added to CB-18 17 μg/ml, R.F.): no improvement; effect on the detrimental effects of the CB-18/P-cax combination ([3]; MgCl2 85 μg/ml added to CB-18 17 μg/ml with P-cax, both isolates, especially 571/573-BAL): alleviate, to some degree
O=C(O)CN(CCN(CC(=O)O)CC(=O)O)CC(=O)O [EDTA]	–	effect on growth characteristics ([3]; ATCC 27294 and 571/573-BAL, EDTA approximately 17 μg/ml, R.F. or P/cax): no effect
oleyl-carboxymethylbetaine [Velvetex OLB-50]	Very strong suppression of growth	CB-18 effect in the methods of the invention [1]: show the CB-18 effect
C16-amidopropyl-sulfatobetaine	No effect	–
cetyl-(poyoxyethylene)10 [Brij 56, reference compound]	significantly suppress growth; also recorded: Very strong suppression of growth	–
CCCCCCCCCCCCCCCCCC(=O)O [Stearic acid, stearic acid, reference compound]	No effect	–
CCCCCCCCCCCCCC[N+](C)(C)Cc1ccccc1.[Cl-] [benzyldimethyl-tetradecyl ammonium chloride, reference compound]	Complete suppression of growth	–
erucamidopropyl hydroxypropyl sulfobetaine [Crosultaine E-30]	Strong suppression of growth	RESULT (effect on growth) ([1]; listed as Crosultaine E30): significantly suppress growth
CCCCCCCCCCCCCCCCCC[N+](C)(C)Cc1ccccc1.[Cl-] [Benzyldimethyl-stearyl ammonium chloride, benzyldimethyl-stearyl ammonium chloride, reference compound]	Complete suppression of growth	–
CCCCCCCCCCCCCCCC[N+](C)(C)CC(O)CS(=O)(=O)[O-] (stereo not shown) [C16-hydroxypropyl-sulfobetaine]	Slight delay in growth	–
C[C@H](CCC(=O)O)[C@H]1CC[C@H]2[C@@H]3CC[C@@H]4C[C@H](O)CC[C@]4(C)[C@H]3C[C@H](O)[C@]12C [Deoxycholic acid, deoxycholic acid, reference compound]	No effect	–
oleyl-(poyoxyethylene)10 [Brij 97, reference compound]	significantly suppress growth; also recorded: Very strong suppression of growth	–
CCCCCCCCCCCCCCCCCC[N+](C)(C)C.[Br-] [TMA-18, trimethyloctadecylammonium bromide, reference compound]	Complete suppression of growth	effect on growth ([4]; 571/573-BAL, 3.4 μg/ml TMA-18, R.F., PANTA or P/cax): significant delays were observed in all bottles; effect on growth ([4]; ATCC 27294, 3.4 μg/ml TMA-18, R.F., PANTA or P/cax): significant delays in all bottles; effect on growth ([4]; ATCC 27294 and 571/573-BAL, TMA-18 3.4 μg/ml (FIGS. 7C and 8C)): bacteriostatic in isolation; also recorded: inhibitory at low concentrations
CCCCCCCCCCCCCCCC(=O)O [Palmitic acid, palmitic acid, reference compound]	No effect	–
stearylamidopropyl-carboxybetaine [Schercotaine IAB]	No effect	–
CCCCCCCCCCCCCCCCCC[N+](C)(C)CCCCS(=O)(=O)[O-] [C18-sulfobutylbetaine]	Slight delay in growth	–
CCCCCCCCCCCCCCCCCC[N+](C)(C)CCCS(=O)(=O)[O-] [SB-18, N-octadecyl-N,N-dimethyl-3-ammonio-1-propane-sulfonate]	significant activity; also recorded: Modest suppression	range of activity ([2]; 571/573-BAL): 20 to 75 µg/mL
phosphatidylcholine [lecithin]	–	ability to overcome the detrimental effect of CB-18 ([5]; lecithin and CB-18 approximately 17 μg/ml each, CB-18 alone and in combination with antibiotics): able to overcome the detrimental effect of CB-18; ability to overcome the deleterious effect of the antibiotic formulation (P/caz) ([5]; lecithin approximately 17 μg/ml, absence of CB-18): ability to overcome, to some degree; impact on the sensitivity of the BACTEC 12B assay ([5]; lecithin approximately 17 μg/ml, no CB-18): little if any impact
CCCCCCCCCCCCCCCC[N+](C)(C)CC(=O)[O-] [DeTaine PB, cetyl-carboxymethylbetaine]	Strong suppression of growth	CB-18 effect in the methods of the invention [1]: show the CB-18 effect
CO[C@@]1(NC(=O)Cc2cccs2)C(=O)N2C(C(=O)O)=C(COC(N)=O)CS[C@@H]21 [cefoxitin, reference compound]	–	effect on growth [6]: unaffected
